Laboratory results taken from patent publication US10017509B2, “Macrocylic pyrimidine derivatives” (Janssen Pharmaceutica NV, priority 2014, dated 2018).

How the values were obtained:
EF2K [1] = biological target: T1, EF2K (Homo sapiens, UniProt O00418); assay: Biochemical EF2K lysate-based kinase assay (AlphaLISA p-eEF2 Thr56); settings: pIC50 = -log IC50 (M), read-out: eEF2K_C_alphalisa pIC50 (converted)
T1 construct: host or cells: LN-229 cell lysate
T1 sequence (O00418 1-725): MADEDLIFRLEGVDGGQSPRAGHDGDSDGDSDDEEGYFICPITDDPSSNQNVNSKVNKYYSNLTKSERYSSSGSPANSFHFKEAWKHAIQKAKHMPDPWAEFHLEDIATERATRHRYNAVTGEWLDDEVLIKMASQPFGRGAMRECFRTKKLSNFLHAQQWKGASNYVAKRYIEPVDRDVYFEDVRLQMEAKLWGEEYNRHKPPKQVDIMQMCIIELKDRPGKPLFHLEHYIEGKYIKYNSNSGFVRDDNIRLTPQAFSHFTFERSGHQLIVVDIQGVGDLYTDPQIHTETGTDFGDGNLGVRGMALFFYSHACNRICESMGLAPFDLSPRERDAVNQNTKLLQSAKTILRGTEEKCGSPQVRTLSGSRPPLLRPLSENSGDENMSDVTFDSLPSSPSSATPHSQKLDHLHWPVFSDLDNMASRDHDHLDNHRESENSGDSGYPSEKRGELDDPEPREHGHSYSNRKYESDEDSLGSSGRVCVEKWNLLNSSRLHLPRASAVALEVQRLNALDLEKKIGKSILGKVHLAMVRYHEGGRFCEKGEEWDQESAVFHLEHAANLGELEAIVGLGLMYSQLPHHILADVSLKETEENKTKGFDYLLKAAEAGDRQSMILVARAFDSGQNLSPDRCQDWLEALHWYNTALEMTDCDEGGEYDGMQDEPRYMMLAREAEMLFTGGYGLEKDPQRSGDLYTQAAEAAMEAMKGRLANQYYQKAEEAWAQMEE
Outline: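 LN-229 glioblastoma lysate supplied both EF2K and eEF2 substrate; compound incubated 15 min at room temperature in pH 6.6 buffer with 10 mM Mg2+ and 10 mM ATP. EDTA-stopped; phospho-eEF2 Thr56 quantified by AlphaLISA sandwich, final read after overnight. Values as pIC50.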

EF2K [2] = biological target: T1, EF2K; assay: EF2K cell-based assay (P-EF2 AlphaLISA, 2-deoxyglucose stimulated MCF10A cells); settings: 2.5 mM 2-deoxyglucose stimulated, P-EF2 Thr56, pIC50 = -log IC50 (M), read-out: eEF2K_C_PThr56 pIC50 (converted)
Outline: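 MCF10A cells, after 24 h culture, treated 1 h with compound then stimulated 4 h with 2.5 mM 2-deoxyglucose to activate AMPK. Lysates in M-PER with protease/phosphatase inhibitors assayed for P-EF2 by AlphaLISA; pIC50 = −log IC50 (M).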

[3] = biological target: Vps34 (PIK3C3 lipid kinase) (Homo sapiens, UniProt Q8NEB9); assay: Biochemical Vps34 lipid kinase assay (ADP-Glo); settings: for remaining activity at 1 µM: 1 h, single dose 1 μM compound, residual activity compared to control (DMSO), read-out: VPS34_1microM_% of cntrl; for IC50: serial half-log dilution 10 μM to 0.3 nM, pIC50 = -log IC50 (M)
Chain of Vps34 (PIK3C3 lipid kinase) (Q8NEB9 whole entry, species assumed): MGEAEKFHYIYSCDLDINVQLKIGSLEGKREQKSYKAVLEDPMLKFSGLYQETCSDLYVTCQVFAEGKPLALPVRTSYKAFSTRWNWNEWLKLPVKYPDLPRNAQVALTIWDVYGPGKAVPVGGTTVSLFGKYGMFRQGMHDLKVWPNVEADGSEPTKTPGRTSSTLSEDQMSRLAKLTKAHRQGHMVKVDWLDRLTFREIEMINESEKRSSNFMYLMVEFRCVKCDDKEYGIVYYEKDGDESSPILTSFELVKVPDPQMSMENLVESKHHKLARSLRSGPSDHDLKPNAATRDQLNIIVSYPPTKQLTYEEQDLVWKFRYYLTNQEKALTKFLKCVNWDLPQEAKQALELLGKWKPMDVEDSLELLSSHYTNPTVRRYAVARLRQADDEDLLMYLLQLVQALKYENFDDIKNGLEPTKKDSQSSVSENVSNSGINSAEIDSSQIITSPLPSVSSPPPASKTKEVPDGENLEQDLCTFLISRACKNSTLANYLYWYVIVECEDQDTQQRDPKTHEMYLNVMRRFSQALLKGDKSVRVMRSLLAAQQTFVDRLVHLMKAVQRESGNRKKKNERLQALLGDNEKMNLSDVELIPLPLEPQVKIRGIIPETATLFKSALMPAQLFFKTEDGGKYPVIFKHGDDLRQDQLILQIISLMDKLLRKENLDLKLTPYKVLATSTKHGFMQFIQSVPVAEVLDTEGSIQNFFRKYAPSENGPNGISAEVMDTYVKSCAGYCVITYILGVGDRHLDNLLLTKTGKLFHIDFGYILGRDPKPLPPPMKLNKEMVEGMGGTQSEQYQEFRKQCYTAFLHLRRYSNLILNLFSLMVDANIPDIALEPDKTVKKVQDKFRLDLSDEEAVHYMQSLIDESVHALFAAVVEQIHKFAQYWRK
Outline: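 ADP-Glo luminescence assay of PIK3C3 (7.6 nM) with 50 µM substrate and 20 µM ATP (apparent Km) in HEPES pH 7.5, 100 mM NaCl, 3 mM MnCl2, CHAPS, DTT; 60 min, 30 °C. Single dose 1 µM (residual activity vs DMSO) or half-log series 10 µM-0.3 nM giving pIC50.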

Row | SMILES | IC50 (EF2K [1]) [M] | IC50 (EF2K [2]) [M] | remaining activity at 1 µM [3] [%] | IC50 [3] [M]
1 | O=C1CN2CCC(CC2)Cc2cccc(c2)Nc2nccc(n2)-c2ccc(nc2)NCCCN1 [Compound 115] | 2.14e-07 | > 3.02e-05 | 6.01 | 1.51e-07
2 | O=C1CN2CCN(CC2)C(=O)c2cccc(c2)Nc2nccc(n2)-c2ccc(nc2)NCCCN1 [Compound 117] | 3.47e-07 | > 3.02e-05 | 11.7 | 2e-07
3 | O=C1CN2CCN(CC2)Cc2cccc(c2)Nc2nccc(n2)-c2ccc(nc2)NCCN1 [Compound 119] | 7.94e-07 | 5.01e-06 | 15.7 | 1.7e-07
4 | CN1CCCNc2ccc(cn2)-c2ccnc(n2)Nc2cccc(c2)CN2CCC(CC2)CC1=O [Compound 124] | > 3.02e-05 | > 3.02e-05 | 53.2 | –
5 | CN1CCCNC(=O)CC2CCN(CC2)Cc2cccc(c2)Nc2nccc(n2)-c2ccc1nc2 [Compound 125] | 1.58e-05 | > 3.02e-05 | 28.4 | 3.39e-07
6 | NC(=O)C1CN2CCN1CC(=O)NCCCNc1ccc(cn1)-c1ccnc(n1)Nc1cccc(c1)C2 (stereo not drawn) [Compound 126] | 1.74e-07 | > 3.02e-05 | 4.95 | 7.59e-08
7 | CN1CCCNc2ccc(cn2)-c2ccnc(n2)Nc2cccc(c2)CN2CCN(CC1=O)C(=O)C2 [Compound 127] | 3.72e-06 | > 3.02e-05 | 19.2 | 3.55e-07
8 | CN1CCCN(C)c2ccc(cn2)-c2ccnc(n2)Nc2cccc(c2)CN2CCNC(CC1=O)C2 (stereo not drawn) [Compound 128] | 1.82e-06 | 2.63e-05 | 5.81 | 1.02e-07
9 | CN1CCCN(C)c2ccc(cn2)-c2ccnc(n2)Nc2cccc(c2)CN2CCN(C)C(CC1=O)C2 (stereo not drawn) [Compound 129] | 9.55e-07 | 9.33e-06 | 9.26 | 4.68e-07
10 | O=C1NCCCNc2ccc(cn2)-c2ccnc(n2)Nc2cccc(c2)CN2CCN1CC2 [Compound 130] | > 3.02e-05 | > 3.02e-05 | 21 | 2.4e-07
11 | CN1CCN(C)c2ccc(cn2)-c2ccnc(n2)Nc2ccc(O)c(c2)CN2CCN(CC2)CC1=O [Compound 131] | 4.57e-07 | 7.59e-06 | 17.3 | 1.74e-07
12 | O=C1CN2CCN(CC2)Cc2cccc(c2)Nc2nccc(n2)-c2ccc(nc2)CN(C(=O)C(F)(F)F)CCN1 [Compound 132] | 6.92e-08 | 3.98e-06 | 7.12 | 1.91e-07
13 | CS(=O)(=O)N1CCNC(=O)CN2CCN(CC2)Cc2cccc(c2)Nc2nccc(n2)-c2ccc(nc2)C1 [Compound 133] | 2.57e-06 | > 1e-05 | 14.6 | 1.48e-07

Second part, the compound after the results:

Row | IC50 (EF2K [1]) [M] | IC50 (EF2K [2]) [M] | remaining activity at 1 µM [3] [%] | IC50 [3] [M] | SMILES
14 | 2.82e-06 | 4.47e-06 | 7.65 | 1.66e-07 | O=C1CNCCNc2ccc(cn2)-c2ccnc(n2)Nc2cccc(c2)CN2CCN1CC2 [Compound 113]
15 | 4.47e-06 | 2.34e-05 | 30.8 | – | CN1CCCN(C)c2ccc(cn2)-c2ccnc(n2)Nc2cccc(c2)CC2(O)CCN(CC2)CC1=O [Compound 114]
16 | 7.76e-06 | > 3.02e-05 | 14 | 4.47e-07 | O=C1CN2CCN(CC2)S(=O)(=O)c2cccc(c2)Nc2nccc(n2)-c2ccc(nc2)NCCCN1 [Compound 116]
17 | 7.94e-06 | > 3.02e-05 | 8.1 | 1.41e-07 | O=C1CN2CCN(CCc3cccc(c3)Nc3nccc(n3)-c3ccc(nc3)NCCCN1)CC2 [Compound 118]
18 | 1.74e-07 | 1.45e-05 | 7.29 | 1.2e-07 | O=C1CN2CCN(CC2)Cc2cc(ccc2Cl)Nc2nccc(n2)-c2ccc(nc2)NCCCN1 [Compound 120]
19 | 8.71e-06 | > 3.02e-05 | 23.6 | 3.89e-06 | COCCN1CCNc2ccc(cn2)-c2ccnc(n2)Nc2cccc(c2)CN2CCN(CC2)CC1=O [Compound 123]
20 | 1.29e-06 | > 1e-05 | 4.78 | 6.46e-08 | NS(=O)(=O)N1CCNC(=O)CN2CCN(CC2)Cc2cccc(c2)Nc2nccc(n2)-c2ccc(nc2)C1 [Compound 134]
